Assay results taken from patent publication US20240327356A1, “PYRIMIDINE BASED RAS MODULATORS AND USES THEREOF” (QUANTA THERAPEUTICS, INC., priority 2021, published 2024).

Legend:
[1] = molecular target: KRAS^G12D-FMe.RAF1^RBDCRD complex (Homo sapiens, UniProt P01116, G12D); experiment: SHG assay: binding to bilayer-tethered KRAS G12D/RAF1 complex; conditions: GppNHp-loaded complex on PS bilayer; compound 0.027-40 μM, monitored over 60 min
Description: Compounds suspected to carry intrinsic SHG activity were tested in the presence of an unlabeled KRAS^G12D-FMe.RAF1^RBDCRD complex to monitor binding. PS bilayer was prepared from PS-enriched small unilamellar vesicles (SUVs) purchased from Biodesy, Inc. The concentrated SUVs were diluted in TBS buffer containing 5 mM CaCl2 and incubated on a glass-bottom 384-well Biodesy Delta™ assay plate to allow bilayer formation. Equimolar amounts of GppNHp-loaded KRAS^G12D-FMe and RAF1^RBDCRD were mixed and incubated together on PS bilayer overnight at 4° C. The following day, untethered protein was removed by washing with assay buffer (20 mM Hepes, pH 7.4, […], 1 mM TCEP, 5 μM GppNHp). The SHG signal produced by bilayer-tethered complex was ready using the Biodesy Delta™ platform where each well was pulsed with an 800 nm laser and the resulting second harmonic signal intensity at 400 nm was collected. Compounds were diluted into the same assay buffer and applied to the complex at a final concentration range spanning 0.027 μM-40 μM and the SHG intensity of each well was monitored at 5 minute intervals over a 60 minute time period.

[2] = test system: pERK (ERK phospho-T202/Y204) in SW-480 cells; experiment: pERK inhibition in SW-480 cell line (HTRF); assay type: cell-based; conditions: Homo sapiens, SW480, 1 hour incubation with compound
Description: SW-480 cells were cultured in Leibovitz's L15 (Gibco Cat. No. 11415064), supplemented with 10% fetal bovine serum (Gibco, Cat. No. 1993708), and 1% penicillin and streptomycin. Cells were grown at 37° C., under atmospheric conditions without additional CO2. Cells were seeded into a 96-well tissue-culture treated plate (Greiner, Cat. No. 655180) at a density of 30,000 cell per well, and allowed to adhere for 16 hours before the media was removed, and cells were treated with compounds diluted into culture media at the indicated concentrations. After 1 hour of incubation in the presence of compound, cells were harvested to measure pERK levels using the lysis buffer supplied with the Homogenous Time Resolved Fluorescence pERK kit (HTRF, Cisbio Advance ERK phospho-T202/Y204, Cat. No. 64AERPEG). Lysates were transferred to a 384-well low-volume white plate (PerkinElmer, Cat. No. 6008280) and then treated with the detection reagents supplied by the HTRF kit, according to the “2-plate” protocol supplied by the manufacturer, and incubated for 4-hours at ambient temperature in darkness. Assay plates were read at two fluorescent wavelengths (665 nm and 620 nm) using an Envision plate reader (Perkin Elmer) and data was processed and fitted to a 4-parameter logistic model using Graphpad Prism 8.0 to calculate IC50 values.

[3] = test system: Phospho-ERK (Thr202/Tyr204) in MiaPaCa-2 cells; experiment: pERK inhibition in MiaPaca-2 cell line (HTRF); assay type: cell-based; conditions: Homo sapiens, MIA PaCa-2, 1 hour incubation with compound
Description: MiaPaCa-2 cells (ATCC CRL-1420) were cultured in high glucose DMEM (Gibco 11965092) containing 10% fetal bovine serum (Gibco 1993708) and 1× Penicillin/Streptomycin, at 37° C. in a humid atmosphere of 5% CO2 in the air. Cells were plated in tissue-culture treated 96-well plates at a density of 10,000 cells/well and allowed to attach for 16 hours. The medium was then removed, and diluted compounds were added in a final concentration of 0.5% DMSO. After 1 hour of incubation, cells were lysed by the lysis buffer supplied with the Phospho-ERK (Thr202/Tyr204) cellular HTRF kit (Cisbio 64ERKPEH) and transferred to a 384-well low-volume white plate (PerkinElmer 6008280). The cell lysates were treated with the detection reagents supplied with the HTRF kit for 4 hours at ambient temperature in darkness. Two fluorescence intensities at the wavelengths (665 and 620 nm) were measured by the Envision plate reader (Perkin Elmer), and the data were processed and fitted to a 4-parameter logistic model for IC50 calculation (GraphPad Prism 9).

| Structure (SMILES) | EC50 [1] [µM] | IC50 [2] [µM] | IC50 [3] [µM] |
| --- | --- | --- | --- |
| Cc1ccc(-c2ncc(CNC(=O)C3(F)CC3)c(N3CCN(C)CC3)n2)cc1Cl [Compound 83] | 10 to 50 | 10 to 50 | 1 to 10 |
| Cc1ccc(-c2ncc(CNC(=O)C3(F)CC3)c(N3C[C@@H]4[C@@H](N)[C@@H]4C3)n2)cc1Cl [Compound 84] | 1 to 10 | 1 to 10 | 1 to 10 |
| Cc1ccc(-c2ncc(CNC(=O)C3(C#N)CCC3)c(N3CCC(CN)C3)n2)cc1Cl (centres unmarked) [Compound 87] | 1 to 10 | 1 to 10 | 1 to 10 |
| NCC1CCN(c2nc(-c3ccc(C(F)(F)F)c(Cl)c3)ncc2N2CCCC2=O)C1 (centres unmarked) [Compound 90, 1-[4-[3-(aminomethyl)pyrrolidin-1-yl]-2-[3-chloro-4-(trifluoromethyl)phenyl]pyrimidin-5-yl]pyrrolidin-2-one] | 1 to 10 | 1 to 10 | 1 to 10 |
| Cc1ccc(-c2ncc(CNC(=O)C3(F)CC3)c(N3CCNCC3)n2)cc1Cl [Compound 91] | 1 to 10 | 1 to 10 | 1 to 10 |
| NCC1CCN(c2nc(-c3ccc(C(F)(F)F)c(Cl)c3)ncc2N2CCNC2=O)C1 (centres unmarked) [Compound 109, 1-[4-[3-(aminomethyl)pyrrolidin-1-yl]-2-[3-chloro-4-(trifluoromethyl)phenyl]pyrimidin-5-yl]imidazolidin-2-one] | 1 to 10 |  | 1 to 10 |
| Cc1ccc(-c2ncc(NC(=O)C3(C#N)CC3)c(N3CCC(CN)C3)n2)cc1Cl (centres unmarked) [Compound 110] | 10 to 50 |  | 1 to 10 |
| Cc1ccc(-c2ncc(NS(=O)(=O)c3ccccc3)c(N3CCC(CN)C3)n2)cc1Cl (centres unmarked) [Compound 112] | 1 to 10 | 1 to 10 | 1 to 10 |
| Cc1ccc(-c2ncc(NC(=O)C3CC3)c(N3CCC(CN)C3)n2)cc1Cl (centres unmarked) [Compound 113] | 10 to 50 |  | 1 to 10 |
| CCOC(=O)NCc1cnc(-c2ccc(C)c(Cl)c2)nc1N1CCC(CN)C1 (centres unmarked) [Compound 118] | 10 to 50 |  | 1 to 10 |
| Cc1ccc(-c2ncc(CN3CCNC3=O)c(N3CCC(CN)C3)n2)cc1Cl (centres unmarked) [Compound 119] | 1 to 10 |  | 1 to 10 |
| Cc1ccc(-c2ncc(CN3CCN(C)C3=O)c(N3CCC(CN)C3)n2)cc1Cl (centres unmarked) [Compound 120] | 10 to 50 |  | 1 to 10 |
| Cc1ccc(-c2ncc(CN3CCOC3=O)c(N3CCC(CN)C3)n2)cc1Cl (centres unmarked) [Compound 121, 3-[[4-[3-(aminomethyl)pyrrolidin-1-yl]-2-(3-chloro-4-methyl-phenyl)pyrimidin-5-yl]methyl]oxazolidin-2-one] | 1 to 10 |  | 1 to 10 |
| Cc1ccc(-c2ncc(CN3CCCC3=O)c(N3CCC(CN)C3)n2)cc1Cl (centres unmarked) [Compound 122] | 1 to 10 |  | 1 to 10 |
| Cc1ccc(-c2ncc(OCC(=O)NC3CC3)c(N3CCC(CN)C3)n2)cc1Cl (centres unmarked) [Compound 126] | 1 to 10 |  | 1 to 10 |

Continued, values first:

| EC50 [1] [µM] | IC50 [2] [µM] | IC50 [3] [µM] | Structure (SMILES) |
| --- | --- | --- | --- |
| 1 to 10 | 1 to 10 | 1 to 10 | N#CC1(C(=O)NCc2cnc(-c3ccc(Cl)c(C(F)(F)F)c3)nc2N2CCC(CN)C2)CC1 (centres unmarked) [Compound 5, N-[[4-[3-(aminomethyl)pyrrolidin-1-yl]-2-[4-chloro-3-(trifluoromethyl)phenyl]pyrimidin-5-yl]methyl]-1-cyano-cyclopropanecarboxamide] |
| 1 to 10 | 1 to 10 | 0.1 to 1 | Cc1ccc(-c2ncc(CNC(=O)C3(C#N)CC3)c(N3CCC(CN)C3)n2)cc1Cl (centres unmarked) [Compound 41] |
| 10 to 50 | 1 to 10 | 1 to 10 | Cc1cc(-c2ncc(CNC(=O)C3(C#N)CC3)c(N3CCC(CN)C3)n2)ccc1Cl (centres unmarked) [Compound 52] |
| 10 to 50 | 1 to 10 | 1 to 10 | N#CC1(C(=O)NCc2cnc(-c3ccc(Cl)c(C(F)F)c3)nc2N2CCC(CN)C2)CC1 (centres unmarked) [Compound 57] |
| 1 to 10 | 1 to 10 | 1 to 10 | Cc1ccc(-c2ncc(CNC(=O)C3(F)CC3)c(N3CCC(CN)C3)n2)cc1Cl (centres unmarked) [Compound 59] |
| 1 to 10 | 1 to 10 | 0.1 to 1 | Cc1ccc(-c2ncc(CNC(=O)C3(C#N)CC3)c(N3CC[C@@H](CN)C3)n2)cc1Cl [Compound 62] |
| 1 to 10 | 1 to 10 | 0.1 to 1 | Cc1ccc(-c2ncc(CNC(=O)C3(C#N)CC3)c(N3CCC(N)CC3)n2)cc1Cl [Compound 67] |
|  | 1 to 10 | 1 to 10 | Cc1ccc(-c2ncc(CNC(=O)C3(F)CC3)c(N3CC[C@@H](CN)C3)n2)cc1Cl [Compound 72] |
| 1 to 10 | 0.1 to 1 | 0.1 to 1 | Cc1ccc(-c2ncc(CNC(=O)C3(C#N)CC3)c(N3CC[C@H](CN)C3)n2)cc1Cl [Compound 73] |
| 10 to 50 | 1 to 10 | 0.1 to 1 | N#CC1(C(=O)NCc2cnc(-c3ccc4c(c3)CCC4)nc2N2CCC(CN)C2)CC1 (centres unmarked) [Compound 104] |
| 10 to 50 | 1 to 10 | 0.1 to 1 | Cc1ccc(-c2ncc(CNC(=O)C3(CO)CC3)c(N3CCC(CN)C3)n2)cc1Cl (centres unmarked) [Compound 105] |
